The values below come from patent US7173019B2, “Linked cyclitols and their polysulfated derivatives” (The Australian National University, priority 2001, dated 2007).

Structures are written as SMILES. Like-named read-outs stand apart in the source and are kept apart here.

What is called EC50 is the concentration needed to bring the measured effect to its halfway point.

For experiment [1], the target named is T1, human leukocyte Cathepsin G (Homo sapiens, UniProt P08311).
T1 construct: human leukocyte Cathepsin G (100 ng protein); from tissue; host or cells: human leukocytes
T1 sequence (P08311 21-244): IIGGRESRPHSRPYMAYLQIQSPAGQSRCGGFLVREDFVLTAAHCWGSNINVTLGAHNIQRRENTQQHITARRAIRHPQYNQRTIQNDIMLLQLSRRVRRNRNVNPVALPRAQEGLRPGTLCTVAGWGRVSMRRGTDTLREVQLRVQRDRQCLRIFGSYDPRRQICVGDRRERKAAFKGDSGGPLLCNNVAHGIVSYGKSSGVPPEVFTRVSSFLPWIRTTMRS
The experiment in a line: Cathepsin G inhibition, fluorogenic substrate, 96 well assay. The class given is biochemical. The following applies: human leukocyte cathepsin G 100 ng, 37° C., 60 min, pH 6.6; for IC50: read-out: Amount for 50% inhibition (converted). The method, then: Cathepsin G activity was determined using a 96 well assay format in PVC microtitre U-bottom plates with activity determination by a fluorescence plate reader. Briefly, within a total incubation volume of 40 μl, human leukocyte Cathepsin G (100 ng protein) was added to a mixture of inhibitor and the fluorogenic substrate MeOSuc-ala-ala-pro-phe-AMAC in 50 mM-NaOAc buffer, pH 6.6 containing 50 mM NaCl and 0.1% (v/v) Brij 35. The mixture was incubated at 37° C. for 60 min, the reaction stopped by the addition of 40 μl of 250 mM acetic acid and the fluorescence determined with excitation at 360 nm and emitted light measured at 460 nm.
In this table, the linked cyclitol compound identifications are the same as those given in Section A above where the structures of the compounds are also given. With regard to the purity rating, a greater number of asterisks signifies a greater degree of purity with five asterisks signifying an essentially pure compound. The cathepsin G inhibition data are the concentrations of compounds required to inhibit the enzyme by 50%.

Another experiment addresses aFGF (Homo sapiens, UniProt P05230). The experiment in a line: Biacore biosensor: inhibition of aFGF binding to immobilised heparin and heparan sulfate. The following applies: inhibitor 0.034 μM, aFGF 0.025 μM. The method, then: (§1) Assays were performed using a Biacore™ 2000 optical biosensor obtained from Biacore AB, Uppsala, Sweden. The biosensor was operated in accordance with the manufacturer's instructions. Briefly, neutravidin was covalently coupled to the surface of CM5 chips of the biosensor and then either biotinylated heparin (1 μg/ml) or biotinylated heparan sulfate ([…]) bound to the immobilised neutravidin. Mixtures of a test compound and a growth factor or other effector compound were preincubated for 2 to 5 minutes and the mixtures then added to individual biosensor cuvettes. Binding of growth factor or effector compound to the heparin or heparan sulfate was then monitored for approximately 5 minutes with the biosensor.
(§2) The tabulated values are the IC50 in μM or % inhibition of binding of the growth factor to the immobilised heparan sulfate (HS) or heparin.
On the technique in general: Surface plasmon resonance follows binding to a sensor surface in real time, without labels.

The target in the next experiment is T2, IL-8 (Homo sapiens, UniProt P10145).
T2 sequence (P10145 21-99): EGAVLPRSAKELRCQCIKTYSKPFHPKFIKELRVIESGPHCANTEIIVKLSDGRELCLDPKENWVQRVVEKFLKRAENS
The experiment in a line: Biacore biosensor: inhibition of IL-8 binding to immobilised heparin and heparan sulfate. The following applies: inhibitor 1.0 μM, IL-8 0.068 μM. The method, then: as §1

Another experiment concerns the target bFGF (Homo sapiens, UniProt P09038). The experiment in a line: Biacore biosensor: inhibition of bFGF binding to immobilised heparin and heparan sulfate. Here is the method:
as §1, §2

Experiment [2] concerns the target T3, human platelet heparanase (Homo sapiens, UniProt Q9Y251).
T3 construct: 10 ng of purified human platelet heparanase; from tissue; host or cells: human platelets
T3 sequence (Q9Y251 158-543 limits assumed): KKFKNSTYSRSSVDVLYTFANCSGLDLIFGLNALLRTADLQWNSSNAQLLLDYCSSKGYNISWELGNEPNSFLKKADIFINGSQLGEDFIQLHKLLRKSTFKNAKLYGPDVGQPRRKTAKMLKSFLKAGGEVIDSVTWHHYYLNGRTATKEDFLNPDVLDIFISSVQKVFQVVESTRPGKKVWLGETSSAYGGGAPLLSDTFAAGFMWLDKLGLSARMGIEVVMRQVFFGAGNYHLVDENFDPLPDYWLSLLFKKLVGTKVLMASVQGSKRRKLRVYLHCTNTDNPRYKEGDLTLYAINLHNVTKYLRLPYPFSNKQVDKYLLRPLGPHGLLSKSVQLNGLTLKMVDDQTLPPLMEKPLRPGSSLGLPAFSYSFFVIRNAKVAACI
T3 sequence (Q9Y251 36-109 limits assumed): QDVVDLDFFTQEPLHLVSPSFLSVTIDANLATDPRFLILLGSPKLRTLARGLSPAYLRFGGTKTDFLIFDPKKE
The experiment in a line: Heparanase inhibition, 3H-radiolabelled HS cleavage assay. The class given is biochemical. The following applies: for inhibition: read-out: Relative inhibition (%); for EC50: heparanase inhibition. The method, then: Briefly, to an incubation mixture of […] containing ^3H-radiolabelled porcine mucosal HS […], 50 mM-sodium acetate buffer, pH 5.0, […] bovine serum albumin and the inhibitor to be tested, was added 10 ng of purified human platelet heparanase and the mixture incubated for 30 min. The reaction was terminated by freezing the assay tubes. The substrate was separated from the cleavage products on minicolumns of sepharose-bound histidine-rich glycoprotein (Freeman, C., and Parish, C. R. [1997], supra).
Inhibitory activity is based on a comparison with heparin with 100% inhibition at 30 μg/ml. The compounds were also tested at the same purity as in Example 15.

The next experiment concerns the target T4, VEGF (Homo sapiens, UniProt P15692).
T4 sequence (P15692 27-191 isoform P15692-4): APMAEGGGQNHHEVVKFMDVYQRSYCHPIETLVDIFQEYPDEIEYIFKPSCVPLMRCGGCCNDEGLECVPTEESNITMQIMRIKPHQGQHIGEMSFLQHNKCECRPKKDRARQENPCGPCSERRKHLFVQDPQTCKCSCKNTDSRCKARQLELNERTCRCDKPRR
The experiment in a line: Biacore biosensor: inhibition of VEGF binding to immobilised heparin and heparan sulfate. The following applies: inhibitor 0.034 μM, VEGF 0.025 μM. The method, then:
as §1, §2

[3] abbreviates: immobilised heparan sulfate, read-out: Inhibition of binding of aFGF (HS).
Setting [4] is: immobilised heparin, read-out: Inhibition of binding of aFGF (Hep).
Setting [5] is: immobilised heparan sulfate, read-out: Inhibition of binding of IL-8 (HS).
Where [6] appears, read: immobilised heparin, read-out: Inhibition of binding of IL-8 (Hep).
Setting [7] is: immobilised heparan sulfate, inhibitor 0.034 μM, bFGF 0.034 μM, read-out: Inhibition of binding of bFGF (HS).
Setting [8] is: immobilised heparin, inhibitor 0.034 μM, bFGF 0.034 μM, read-out: Inhibition of binding of bFGF (Hep).
Where [9] appears, read: based on a comparison with heparin with 100% inhibition at 30 μg/ml.
The mark [10] stands for this setting: immobilised heparan sulfate, read-out: Inhibition of binding of VEGF (HS).
[11] abbreviates: immobilised heparin, read-out: Inhibition of binding of VEGF (Hep).
The mark [12] stands for this setting: immobilised heparan sulfate, read-out: IC50, inhibition of bFGF binding (HS).
Setting [13] is: immobilised heparin, read-out: IC50, inhibition of bFGF binding (Hep).

Sequence of bFGF (P09038 134-288 limits assumed, species assumed): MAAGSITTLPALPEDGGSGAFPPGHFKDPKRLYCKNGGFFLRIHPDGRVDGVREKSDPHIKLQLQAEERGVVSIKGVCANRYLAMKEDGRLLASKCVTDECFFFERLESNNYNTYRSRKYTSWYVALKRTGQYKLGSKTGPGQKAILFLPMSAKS
Sequence of aFGF (P05230 whole entry, species assumed): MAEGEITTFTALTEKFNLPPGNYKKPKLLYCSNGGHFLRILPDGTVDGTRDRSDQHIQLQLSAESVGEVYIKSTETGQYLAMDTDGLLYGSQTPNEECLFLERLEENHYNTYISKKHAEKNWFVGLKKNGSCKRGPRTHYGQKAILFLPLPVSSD

For the molecule `O=S(=O)(O)O[C@H]1[C@H](OS(=O)(=O)O)[C@@H](N(CCCCCCCCCN([C@H]2C=C[C@@H](OS(=O)(=O)O)[C@@H](OS(=O)(=O)O)[C@@H]2OS(=O)(=O)O)[C@H]2C=C[C@@H](OS(=O)(=O)O)[C@@H](OS(=O)(=O)O)[C@@H]2OS(=O)(=O)O)[C@H]2C=C[C@@H](OS(=O)(=O)O)[C@@H](OS(=O)(=O)O)[C@@H]2OS(=O)(=O)O)C=C[C@H]1OS(=O)(=O)O` [Compound 4j], the IC50 in experiment [1] is 91.9 nM. Further, the inhibition at 0.034 µM was 31% at aFGF (setting [3]); 31% on aFGF (setting [4]); 43% at bFGF (setting [7]); 46% at bFGF (setting [8]); 54% on VEGF (setting [10]); 64% at VEGF (setting [11]). For the same molecule, the inhibition at 1 µM at IL-8 (setting [5]) was found to be 65%; at IL-8 (setting [6]), 62%. The inhibition in experiment [2] (setting [9]) was 73%. In addition, the EC50 in experiment [2] (read-out: EC50 (converted)) was 6130 nM.

In the case of `O=S(=O)(O)OC[C@H]1O[C@@](COS(=O)(=O)O)(O[C@H]2O[C@H](COS(=O)(=O)O)[C@@H](OS(=O)(=O)O)[C@H](OS(=O)(=O)O)[C@H]2OS(=O)(=O)O)[C@@H](OS(=O)(=O)O)[C@@H]1OS(=O)(=O)O` [Sucrose octasulfate, reference compound], the “Amount for 50% inhibition” value in experiment [1] was determined as 4.30 µg/mL. Further, the “Inhibition of binding of aFGF (HS)” value at aFGF (immobilised heparan sulfate) is on record as 0% (HS). In addition, the “Inhibition of binding of aFGF (Hep)” value at aFGF (immobilised heparin) was 0% (Hep). At bFGF (immobilised heparan sulfate, inhibitor 0.034 μM, bFGF 0.034 μM), the “Inhibition of binding of bFGF (HS)” value is recorded as 2.5% (HS). Also, the IC50 at bFGF (setting [12]) is 925 nM; at bFGF (setting [13]), over 1000 nM. Moreover, the “Inhibition of binding of bFGF (Hep)” value on bFGF (immobilised heparin, inhibitor 0.034 μM, bFGF 0.034 μM) was 0% (Hep). For the same molecule, the “Relative inhibition (%)” value in experiment [2] (setting [9]) turned out to be 0%. Further, the EC50 in experiment [2] is over 30 µg/mL. The “Inhibition of binding of VEGF (HS)” value on VEGF (immobilised heparan sulfate) was 0% (HS). Besides, on VEGF (immobilised heparin), the “Inhibition of binding of VEGF (Hep)” value is reported as 0% (Hep).

For `O=S(=O)(O)O[C@H]1[C@H](OS(=O)(=O)O)[C@@H](N(CCCCCN([C@H]2C=C[C@@H](OS(=O)(=O)O)[C@@H](OS(=O)(=O)O)[C@@H]2OS(=O)(=O)O)[C@H]2C=C[C@@H](OS(=O)(=O)O)[C@@H](OS(=O)(=O)O)[C@@H]2OS(=O)(=O)O)[C@H]2C=C[C@@H](OS(=O)(=O)O)[C@@H](OS(=O)(=O)O)[C@@H]2OS(=O)(=O)O)C=C[C@H]1OS(=O)(=O)O` [Compound 4k], the IC50 in experiment [1] was 133 nM. The inhibition at 0.034 µM at aFGF (setting [3]) stood at 39%; on aFGF (setting [4]) it was 43%; at bFGF (setting [7]) it was 45%; on bFGF (setting [8]) it was 36%; on VEGF (setting [10]), 30%; at VEGF (setting [11]) it was 41%. In addition, the inhibition at 1 µM at IL-8 (setting [5]) turned out to be 54%; at IL-8 (setting [6]), 67%. Further, in experiment [2] (setting [9]), the inhibition was 50%. Moreover, in experiment [2] (read-out: Inhibition (%) at 10 μg/ml), the inhibition at 10 µg/mL is 39%.

As to `O=S(=O)(O)O[C@H]1[C@H](OS(=O)(=O)O)[C@@H](N(CCCCCCCCCCN([C@H]2C=C[C@@H](OS(=O)(=O)O)[C@@H](OS(=O)(=O)O)[C@@H]2OS(=O)(=O)O)[C@H]2C=C[C@@H](OS(=O)(=O)O)[C@@H](OS(=O)(=O)O)[C@@H]2OS(=O)(=O)O)[C@H]2C=C[C@@H](OS(=O)(=O)O)[C@@H](OS(=O)(=O)O)[C@@H]2OS(=O)(=O)O)C=C[C@H]1OS(=O)(=O)O` [Compound 4c], the IC50 in experiment [1] was 158 nM. The inhibition at 0.034 µM stood at 21% at aFGF (setting [3]); 26% at aFGF (setting [4]); 43% on bFGF (setting [7]); 34% on bFGF (setting [8]); 53% on VEGF (setting [10]); 62% at VEGF (setting [11]). Besides, the inhibition at 1 µM at IL-8 (setting [5]) worked out at 77%; at IL-8 (setting [6]) it was 76%. Besides, the inhibition in experiment [2] (setting [9]) was 45%. In addition, the EC50 in experiment [2] (read-out: EC50 (converted)) is 25500 nM.

Consider `O=S(=O)(O)OC1C(OS(=O)(=O)O)C(OS(=O)(=O)O)C(N(CCCCCCCCCCN(C2C(OS(=O)(=O)O)C(OS(=O)(=O)O)C(OS(=O)(=O)O)C(OS(=O)(=O)O)C2OS(=O)(=O)O)C2C(OS(=O)(=O)O)C(OS(=O)(=O)O)C(OS(=O)(=O)O)C(OS(=O)(=O)O)C2OS(=O)(=O)O)C2C(OS(=O)(=O)O)C(OS(=O)(=O)O)C(OS(=O)(=O)O)C(OS(=O)(=O)O)C2OS(=O)(=O)O)C(OS(=O)(=O)O)C1OS(=O)(=O)O` (centres unmarked) [Compound 5c], for which the figures for the IC50 (in experiment [1]; on bFGF (setting [12]); on bFGF (setting [13])) were 198 nM, over 250 nM and over 250 nM, respectively. Moreover, the “heparanase inhibition, in words” value in experiment [2] was “poor heparanase inhibitor”. Further, in experiment [2] (read-out: EC50 (converted)), the EC50 is 20600 nM.

In the case of `O=S(=O)(O)OC1C(OS(=O)(=O)O)C(OS(=O)(=O)O)C(N(CCCCCCN(C2C(OS(=O)(=O)O)C(OS(=O)(=O)O)C(OS(=O)(=O)O)C(OS(=O)(=O)O)C2OS(=O)(=O)O)C2C(OS(=O)(=O)O)C(OS(=O)(=O)O)C(OS(=O)(=O)O)C(OS(=O)(=O)O)C2OS(=O)(=O)O)C2C(OS(=O)(=O)O)C(OS(=O)(=O)O)C(OS(=O)(=O)O)C(OS(=O)(=O)O)C2OS(=O)(=O)O)C(OS(=O)(=O)O)C1OS(=O)(=O)O` (centres unmarked) [Compound 5b], the results for the IC50 (in experiment [1]; at bFGF (setting [12]); at bFGF (setting [13])) were 304 nM, 96 nM and over 250 nM, respectively. Besides, the EC50 in experiment [2] (read-out: EC50 (converted)) was 5920 nM.
